{
  "source": "paper PMC12459614",
  "about": "(European journal of medicinal chemistry, 2025)",
  "key": {"GPR17": {"tested_on": "GPR17", "conditions": "cited from earlier work"}, "hCysLTR1": {"target": "T1, hCysLTR1 (Homo sapiens, UniProt Q9Y271)", "T1 sequence (Q9Y271 1-337)": "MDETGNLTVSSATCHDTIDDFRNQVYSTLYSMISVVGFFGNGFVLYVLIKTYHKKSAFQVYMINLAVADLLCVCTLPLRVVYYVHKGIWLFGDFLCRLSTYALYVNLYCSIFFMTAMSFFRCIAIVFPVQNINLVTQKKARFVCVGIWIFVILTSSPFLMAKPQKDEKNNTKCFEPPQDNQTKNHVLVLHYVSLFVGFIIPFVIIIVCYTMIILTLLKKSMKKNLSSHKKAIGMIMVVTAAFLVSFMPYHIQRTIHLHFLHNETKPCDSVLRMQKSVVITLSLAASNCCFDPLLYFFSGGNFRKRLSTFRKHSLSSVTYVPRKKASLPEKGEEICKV", "experiment": "Calcium mobilization, Neuro-2a cells transiently transfected with hCysLTR1", "assay_type": "cell-based", "conditions": "10 μM compound; 50 nM LTD4"}, "hGPR17L [1]": {"target": "T2, hGPR17L (Homo sapiens, UniProt Q13304)", "T2 sequence (Q13304 whole entry)": "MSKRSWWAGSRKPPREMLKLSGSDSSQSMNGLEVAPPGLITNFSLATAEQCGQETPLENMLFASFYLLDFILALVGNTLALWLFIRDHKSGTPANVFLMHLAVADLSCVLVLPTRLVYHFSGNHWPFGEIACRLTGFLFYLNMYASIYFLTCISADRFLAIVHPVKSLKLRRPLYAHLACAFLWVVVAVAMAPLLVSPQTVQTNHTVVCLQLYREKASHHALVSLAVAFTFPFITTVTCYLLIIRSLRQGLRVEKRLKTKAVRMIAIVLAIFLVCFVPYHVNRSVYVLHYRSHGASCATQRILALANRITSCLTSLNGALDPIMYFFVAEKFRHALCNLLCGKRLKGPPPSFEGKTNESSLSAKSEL", "experiment": "Calcium mobilization assay", "assay_type": "cell-based", "conditions": "for antagonist activity at GPR17: calcium mobilization assay, data not shown"}, "hGPR17": {"target": "hGPR17 (Homo sapiens, UniProt Q13304)", "sequence (Q13304 whole entry)": "as above", "experiment": "Cisbio HTRF β-arrestin recruitment assay, Schild analysis", "assay_type": "cell-based", "conditions": "Table 1"}, "hGPR17L [2]": {"target": "T2, hGPR17L", "experiment": "cAMP signaling in GLUTag cells expressing hGPR17L", "assay_type": "cell-based", "conditions": "for attenuation of MDL-mediated inhibition of forskolin-stimulated cAMP: 10 μM compound, 100 nM MDL, 10 μM forskolin"}, "FGFR1": {"target": "FGFR1 (Homo sapiens, UniProt P11362)", "sequence (P11362 22-822)": "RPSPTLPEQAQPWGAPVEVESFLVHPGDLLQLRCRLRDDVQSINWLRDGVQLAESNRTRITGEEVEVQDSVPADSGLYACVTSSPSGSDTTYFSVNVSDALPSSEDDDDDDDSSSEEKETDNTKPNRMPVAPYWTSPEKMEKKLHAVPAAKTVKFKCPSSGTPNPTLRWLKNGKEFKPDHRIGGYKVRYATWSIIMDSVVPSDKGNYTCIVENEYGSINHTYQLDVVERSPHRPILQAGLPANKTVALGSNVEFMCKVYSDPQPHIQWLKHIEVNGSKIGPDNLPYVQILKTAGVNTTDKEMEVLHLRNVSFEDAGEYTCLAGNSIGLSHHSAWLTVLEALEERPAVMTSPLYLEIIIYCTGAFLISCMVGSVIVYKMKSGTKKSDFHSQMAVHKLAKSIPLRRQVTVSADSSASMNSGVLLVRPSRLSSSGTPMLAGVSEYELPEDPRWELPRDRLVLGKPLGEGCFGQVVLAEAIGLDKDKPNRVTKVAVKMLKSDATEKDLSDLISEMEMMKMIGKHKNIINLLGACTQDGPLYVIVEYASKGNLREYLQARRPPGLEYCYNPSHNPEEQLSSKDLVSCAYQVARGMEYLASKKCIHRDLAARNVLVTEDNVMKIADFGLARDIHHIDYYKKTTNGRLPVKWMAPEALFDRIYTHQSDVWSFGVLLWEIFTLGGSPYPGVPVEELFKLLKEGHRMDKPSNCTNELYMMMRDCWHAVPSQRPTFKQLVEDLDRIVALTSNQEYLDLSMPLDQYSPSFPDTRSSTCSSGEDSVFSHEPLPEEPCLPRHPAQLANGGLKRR", "experiment": "PathHunter U2OS FGFR1 functional counter assay", "assay_type": "cell-based", "conditions": "dose response"}, "hGPR17L [3]": {"target": "T2, hGPR17L", "experiment": "GLP-1 secretion assay in GLUTag cells expressing hGPR17L", "assay_type": "cell-based", "conditions": "6.3 μM MDL; for attenuation of MDL-mediated inhibition of GLP-1 secretion: 10 μM compound, 10 μM forskolin and 10 μM IBMX"}, "GHSR1a": {"target": "GHSR1a (Homo sapiens, UniProt Q92847)", "sequence (Q92847 whole entry)": "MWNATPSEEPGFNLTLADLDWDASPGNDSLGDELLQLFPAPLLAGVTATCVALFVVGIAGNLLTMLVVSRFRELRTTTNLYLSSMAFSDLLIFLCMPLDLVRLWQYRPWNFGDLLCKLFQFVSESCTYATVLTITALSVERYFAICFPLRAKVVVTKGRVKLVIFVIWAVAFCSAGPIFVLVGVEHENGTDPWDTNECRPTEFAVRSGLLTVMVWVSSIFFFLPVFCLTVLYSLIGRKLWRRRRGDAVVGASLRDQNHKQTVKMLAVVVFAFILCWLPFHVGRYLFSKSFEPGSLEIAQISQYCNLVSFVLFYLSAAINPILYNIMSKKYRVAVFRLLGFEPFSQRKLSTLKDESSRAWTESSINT", "experiment": "PathHunter U2OS GHSR1a β-arrestin counter assay", "assay_type": "cell-based", "conditions": "dose response"}, "hGPR17L [4]": {"target": "T2, hGPR17L", "experiment": "cAMP accumulation HTRF assay"}, "[5]": {"target": "N-methyl-D-aspartate (NMDA) receptors, glycine binding site", "conditions": "cited from earlier work"}, "hP2RY1": {"target": "hP2RY1 (Homo sapiens, UniProt P47900)", "sequence (P47900 whole entry)": "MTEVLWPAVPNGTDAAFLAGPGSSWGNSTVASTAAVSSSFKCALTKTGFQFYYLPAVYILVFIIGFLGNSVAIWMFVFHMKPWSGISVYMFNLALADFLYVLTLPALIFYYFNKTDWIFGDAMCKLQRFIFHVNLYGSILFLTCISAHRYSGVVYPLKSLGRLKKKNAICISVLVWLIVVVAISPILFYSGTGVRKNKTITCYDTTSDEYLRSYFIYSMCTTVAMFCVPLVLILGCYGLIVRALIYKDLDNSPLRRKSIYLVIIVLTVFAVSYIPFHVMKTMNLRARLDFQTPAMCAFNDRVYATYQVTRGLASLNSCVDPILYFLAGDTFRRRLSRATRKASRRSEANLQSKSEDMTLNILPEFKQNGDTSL", "experiment": "Calcium mobilization, Neuro-2a cells transiently transfected with hP2RY1", "assay_type": "cell-based", "conditions": "10 μM compound (300 μM MRS2179); 8 nM 2MeSADP"}, "GPR17 (long isoform)": {"target": "GPR17 (long isoform) (Homo sapiens, UniProt Q13304)", "sequence (Q13304 whole entry, canonical isoform)": "as the sequence (Q13304 whole entry) above", "experiment": "PathHunter GPR17 β-arrestin recruitment assay", "assay_type": "cell-based", "conditions": "IC50 (antagonist mode), assay development; stimulated with 2 μM MDL (~EC80)"}, "hCysLTR2": {"target": "T3, hCysLTR2 (Homo sapiens, UniProt Q9NS75)", "T3 sequence (Q9NS75 1-346)": "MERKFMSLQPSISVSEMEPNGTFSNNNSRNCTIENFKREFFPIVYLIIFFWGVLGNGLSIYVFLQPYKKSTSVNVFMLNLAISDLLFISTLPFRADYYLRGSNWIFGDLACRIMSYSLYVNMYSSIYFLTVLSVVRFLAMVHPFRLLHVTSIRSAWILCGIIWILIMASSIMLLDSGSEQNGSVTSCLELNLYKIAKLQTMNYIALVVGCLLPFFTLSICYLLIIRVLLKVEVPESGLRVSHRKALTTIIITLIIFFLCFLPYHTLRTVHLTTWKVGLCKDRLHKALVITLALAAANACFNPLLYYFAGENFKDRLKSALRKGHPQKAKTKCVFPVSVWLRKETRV", "experiment": "Calcium mobilization, Neuro-2a cells transiently transfected with hCysLTR2", "assay_type": "cell-based", "conditions": "10 μM compound; 50 nM LTD4"}},
  "data": [
    {"compound": "O=C(Nc1cccc2c(=O)cc(-c3nnn[nH]3)oc12)c1ccc(OCCCCc2ccccc2)cc1", "note": "[pranlukast]", "values": [
      {"measurement": "block of MDL-stimulated receptor activation of GPR17", "setting": "GPR17", "value": "completely"},
      {"measurement": "block of CYSLTR1 activation", "setting": "hCysLTR1", "value": "antagonized"},
      {"measurement": "antagonist activity at GPR17", "setting": "hGPR17L [1]", "value": "full antagonist activity"}
    ]},
    {"compound": "COc1ccc(C(=O)NC2CCCc3c2[nH]c2c(Cl)cccc32)cc1OC", "note": "(stereo not shown) [Compd 1, N-(8-Chloro-2,3,4,9-tetrahydro-1H-carbazol-1-yl)-3,4-dimethoxybenzamide]", "values": [
      {"measurement": "β-arrestin Schild Slope (95% CI)", "setting": "hGPR17", "value": "1.13 (0.96 – 1.30)"},
      {"measurement": "attenuation of MDL-mediated inhibition of forskolin-stimulated cAMP", "setting": "hGPR17L [2]", "value": "significantly attenuated"},
      {"measurement": "activity in FGFR1 functional counter assay", "setting": "FGFR1", "value": "no activity"},
      {"measurement": "attenuation of MDL-mediated inhibition of GLP-1 secretion", "setting": "hGPR17L [3]", "value": "significantly attenuated"},
      {"measurement": "activity in GHSR1a β-arrestin counter assay", "setting": "GHSR1a", "value": "no activity"},
      {"measurement": "Emax", "setting": "hGPR17L [1]; 1321-N1, read-out: % Efficacy Avg ± SEM", "value": "109 ± 3.38", "unit": "%"},
      {"measurement": "IC50", "setting": "hGPR17L [1]; Calcium Assay IC50(μM) Avg ± SEM, Table 2, reported only when efficacy ≥75%", "value": "5.47 ± 0.3", "unit": "µM"}
    ]},
    {"compound": "O=C(O)CCc1c(C(=O)O)[nH]c2cc(Cl)cc(Cl)c12", "note": "[MDL, 3-(2-carboxyethyl)-4,6-dichloro-1H-indole-2-carboxylic acid]", "values": [
      {"measurement": "forskolin-stimulated cAMP after GPR17 activation", "setting": "hGPR17L [2]; forskolin plus MDL", "value": "3.5 ± 0.18", "unit": "nM"},
      {"measurement": "inhibition of forskolin stimulated cAMP", "setting": "hGPR17L [2]; forskolin plus MDL", "value": "29 ± 3", "unit": "%"},
      {"measurement": "forskolin and IBMX-stimulated GLP-1 secretion after GPR17 activation", "setting": "hGPR17L [3]", "value": "50.1 ± 4.6", "unit": "pM"},
      {"measurement": "reduction of forskolin and IBMX-stimulated GLP-1 secretion", "setting": "hGPR17L [3]", "value": "33 ± 8", "unit": "%"},
      {"measurement": "EC50", "setting": "hGPR17L [4]", "value": 0.0019, "unit": "µM"},
      {"measurement": "Ki", "setting": "[5]", "value": 0.14, "unit": "µM"},
      {"measurement": "EC50", "setting": "hGPR17L [1]", "value": 0.28, "unit": "µM"}
    ]},
    {"compound": "CNc1ncnc2c1ncn2[C@H]1C[C@H](OP(=O)(O)O)[C@@H](COP(=O)(O)O)O1", "note": "[MRS2179]", "values": [
      {"measurement": "block of P2RY1 activation", "setting": "hP2RY1", "value": "antagonized"}
    ]},
    {"compound": "O=C(O)c1ccc(OCCCc2ccc(OCCCCOC3CCCCC3)cc2)c(C(=O)NC2CCCC(C(=O)O)C2)c1", "note": "(stereo not shown) [HAMI]", "values": [
      {"measurement": "attenuation of MDL-mediated inhibition of forskolin-stimulated cAMP", "setting": "hGPR17L [2]", "value": "significantly attenuated"},
      {"measurement": "IC50", "setting": "GPR17", "value": "single digit micromolar range"},
      {"measurement": "block of MDL-stimulated receptor activation of GPR17", "setting": "GPR17", "value": "completely"},
      {"measurement": "attenuation of MDL-mediated inhibition of GLP-1 secretion", "setting": "hGPR17L [3]", "value": "significantly attenuated"},
      {"measurement": "IC50", "setting": "hGPR17L [4]; IC50 (antagonist mode), assay development, 30 nM MDL (EC80), 1 μM forskolin", "value": 1.5, "unit": "µM"},
      {"measurement": "IC50", "setting": "hGPR17L [4]; IC50, cAMP HTRF assay, purified re-purchased/re-synthesized compounds reassessed", "value": 10, "unit": "µM"},
      {"measurement": "IC50", "setting": "GPR17 (long isoform)", "value": 8.2, "unit": "µM"},
      {"measurement": "block of CYSLTR2 activation", "setting": "hCysLTR2", "value": "antagonized"},
      {"measurement": "IC50", "setting": "hGPR17L [1]; IC50 (antagonist mode), assay development, stimulated with […] MDL (~EC80)", "value": 8.1, "unit": "µM"},
      {"measurement": "antagonist activity at GPR17", "setting": "hGPR17L [1]", "value": "full antagonist activity"}
    ]}
  ]
}
